Test results published in patent publication US10799522B2, “Compositions and methods relating to galectin detection” (Wayne State University, priority 2015, dated 2020).

Assay: radiation dosimetry estimates for human patients
Conditions: adult male
[1] = target organ Urinary Bladder Wall

## OCC1OC(SC2OC(CO)C(O)C(n3cc(-c4cccc([18F])c4)nn3)C2O)C(O)C(n2cc(-c3cccc(F)c3)nn2)C1O [[^18F]FPTDG, 3-(3-[^18F]fluorophenyltriazolyl)-3-deoxy-3′-(3-fluorophenyltriazolyl)-3′-deoxy-1-thio-β-D-digalactopyranoside]
  Effective Dose: Effective Dose 6.74 mSv per 370 MBq dose or 10 mCi
  Effective Dose Equivalent: Effective Dose Equivalent 6.12 mSv per 370 MBq dose or 10 mCi
Total Body
  Estimated organ dose, Alpha: 0 mSv per 370 MBq dose or 10 mCi
  Estimated organ dose, Beta: 1.79 mSv per 370 MBq dose or 10 mCi
  Estimated organ dose, ED Cont.: 0.00 mSv per 370 MBq dose or 10 mCi
  Estimated organ dose, EDE Cont.: 0.00 mSv per 370 MBq dose or 10 mCi
  Estimated organ dose, Photon: 2.67 mSv per 370 MBq dose or 10 mCi
  Estimated organ dose, Total: 4.46 mSv per 370 MBq dose or 10 mCi
Target organ Adrenals
  Estimated organ dose, Alpha: 0 mSv per 370 MBq dose or 10 mCi
  Estimated organ dose, Beta: 1.70 mSv per 370 MBq dose or 10 mCi
  Estimated organ dose, ED Cont.: 0.03 mSv per 370 MBq dose or 10 mCi
  Estimated organ dose, EDE Cont.: 0.00 mSv per 370 MBq dose or 10 mCi
  Estimated organ dose, Photon: 3.33 mSv per 370 MBq dose or 10 mCi
  Estimated organ dose, Total: 5.03 mSv per 370 MBq dose or 10 mCi
Target organ Brain
  Estimated organ dose, Alpha: 0 mSv per 370 MBq dose or 10 mCi
  Estimated organ dose, Beta: 1.70 mSv per 370 MBq dose or 10 mCi
  Estimated organ dose, ED Cont.: 0.02 mSv per 370 MBq dose or 10 mCi
  Estimated organ dose, EDE Cont.: 0.00 mSv per 370 MBq dose or 10 mCi
  Estimated organ dose, Photon: 2.22 mSv per 370 MBq dose or 10 mCi
  Estimated organ dose, Total: 3.92 mSv per 370 MBq dose or 10 mCi
Target organ Breasts
  Estimated organ dose, Alpha: 0 mSv per 370 MBq dose or 10 mCi
  Estimated organ dose, Beta: 1.70 mSv per 370 MBq dose or 10 mCi
  Estimated organ dose, ED Cont.: 0.18 mSv per 370 MBq dose or 10 mCi
  Estimated organ dose, EDE Cont.: 0.54 mSv per 370 MBq dose or 10 mCi
  Estimated organ dose, Photon: 1.87 mSv per 370 MBq dose or 10 mCi
  Estimated organ dose, Total: 3.57 mSv per 370 MBq dose or 10 mCi
Target organ Gallbladder Wall
  Estimated organ dose, Alpha: 0 mSv per 370 MBq dose or 10 mCi
  Estimated organ dose, Beta: 1.70 mSv per 370 MBq dose or 10 mCi
  Estimated organ dose, ED Cont.: 0.00 mSv per 370 MBq dose or 10 mCi
  Estimated organ dose, EDE Cont.: 0.00 mSv per 370 MBq dose or 10 mCi
  Estimated organ dose, Photon: 3.7 mSv per 370 MBq dose or 10 mCi
  Estimated organ dose, Total: 5.40 mSv per 370 MBq dose or 10 mCi
Target organ Heart Wall
  Estimated organ dose, Alpha: 0 mSv per 370 MBq dose or 10 mCi
  Estimated organ dose, Beta: 1.72 mSv per 370 MBq dose or 10 mCi
  Estimated organ dose, ED Cont.: 0.00 mSv per 370 MBq dose or 10 mCi
  Estimated organ dose, EDE Cont.: 0.00 mSv per 370 MBq dose or 10 mCi
  Estimated organ dose, Photon: 2.76 mSv per 370 MBq dose or 10 mCi
  Estimated organ dose, Total: 4.48 mSv per 370 MBq dose or 10 mCi
Target organ Kidneys
  Estimated organ dose, Alpha: 0 mSv per 370 MBq dose or 10 mCi
  Estimated organ dose, Beta: 1.70 mSv per 370 MBq dose or 10 mCi
  Estimated organ dose, ED Cont.: 0.02 mSv per 370 MBq dose or 10 mCi
  Estimated organ dose, EDE Cont.: 0.00 mSv per 370 MBq dose or 10 mCi
  Estimated organ dose, Photon: 3.24 mSv per 370 MBq dose or 10 mCi
  Estimated organ dose, Total: 4.94 mSv per 370 MBq dose or 10 mCi
Target organ LLI Wall
  Estimated organ dose, Alpha: 0 mSv per 370 MBq dose or 10 mCi
  Estimated organ dose, Beta: 9.25 mSv per 370 MBq dose or 10 mCi
  Estimated organ dose, ED Cont.: 1.72 mSv per 370 MBq dose or 10 mCi
  Estimated organ dose, EDE Cont.: 0.86 mSv per 370 MBq dose or 10 mCi
  Estimated organ dose, Photon: 5.06 mSv per 370 MBq dose or 10 mCi
  Estimated organ dose, Total: 14.30 mSv per 370 MBq dose or 10 mCi
Target organ Liver
  Estimated organ dose, Alpha: 0 mSv per 370 MBq dose or 10 mCi
  Estimated organ dose, Beta: 1.30 mSv per 370 MBq dose or 10 mCi
  Estimated organ dose, ED Cont.: 0.20 mSv per 370 MBq dose or 10 mCi
  Estimated organ dose, EDE Cont.: 0.00 mSv per 370 MBq dose or 10 mCi
  Estimated organ dose, Photon: 2.79 mSv per 370 MBq dose or 10 mCi
  Estimated organ dose, Total: 4.08 mSv per 370 MBq dose or 10 mCi
Target organ Lungs
  Estimated organ dose, Alpha: 0 mSv per 370 MBq dose or 10 mCi
  Estimated organ dose, Beta: 0.03 mSv per 370 MBq dose or 10 mCi
  Estimated organ dose, ED Cont.: 0.28 mSv per 370 MBq dose or 10 mCi
  Estimated organ dose, EDE Cont.: 0.28 mSv per 370 MBq dose or 10 mCi
  Estimated organ dose, Photon: 2.26 mSv per 370 MBq dose or 10 mCi
  Estimated organ dose, Total: 2.29 mSv per 370 MBq dose or 10 mCi
Target organ Muscle
  Estimated organ dose, Alpha: 0 mSv per 370 MBq dose or 10 mCi
  Estimated organ dose, Beta: 1.70 mSv per 370 MBq dose or 10 mCi
  Estimated organ dose, ED Cont.: 0.02 mSv per 370 MBq dose or 10 mCi
  Estimated organ dose, EDE Cont.: 0.00 mSv per 370 MBq dose or 10 mCi
  Estimated organ dose, Photon: 2.68 mSv per 370 MBq dose or 10 mCi
  Estimated organ dose, Total: 4.38 mSv per 370 MBq dose or 10 mCi
Target organ Osteogenic Cells
  Estimated organ dose, Alpha: 0 mSv per 370 MBq dose or 10 mCi
  Estimated organ dose, Beta: 3.64 mSv per 370 MBq dose or 10 mCi
  Estimated organ dose, ED Cont.: 0.07 mSv per 370 MBq dose or 10 mCi
  Estimated organ dose, EDE Cont.: 0.21 mSv per 370 MBq dose or 10 mCi
  Estimated organ dose, Photon: 3.17 mSv per 370 MBq dose or 10 mCi
  Estimated organ dose, Total: 6.82 mSv per 370 MBq dose or 10 mCi
Target organ Ovaries
  Estimated organ dose, Alpha: 0 mSv per 370 MBq dose or 10 mCi
  Estimated organ dose, Beta: 1.70 mSv per 370 MBq dose or 10 mCi
  Estimated organ dose, ED Cont.: 1.20 mSv per 370 MBq dose or 10 mCi
  Estimated organ dose, EDE Cont.: 1.50 mSv per 370 MBq dose or 10 mCi
  Estimated organ dose, Photon: 4.32 mSv per 370 MBq dose or 10 mCi
  Estimated organ dose, Total: 6.02 mSv per 370 MBq dose or 10 mCi
Target organ Pancreas
  Estimated organ dose, Alpha: 0 mSv per 370 MBq dose or 10 mCi
  Estimated organ dose, Beta: 1.70 mSv per 370 MBq dose or 10 mCi
  Estimated organ dose, ED Cont.: 0.03 mSv per 370 MBq dose or 10 mCi
  Estimated organ dose, EDE Cont.: 0.35 mSv per 370 MBq dose or 10 mCi
  Estimated organ dose, Photon: 4.2 mSv per 370 MBq dose or 10 mCi
  Estimated organ dose, Total: 5.90 mSv per 370 MBq dose or 10 mCi
Target organ Red Marrow
  Estimated organ dose, Alpha: 0 mSv per 370 MBq dose or 10 mCi
  Estimated organ dose, Beta: 1.21 mSv per 370 MBq dose or 10 mCi
  Estimated organ dose, ED Cont.: 0.51 mSv per 370 MBq dose or 10 mCi
  Estimated organ dose, EDE Cont.: 0.51 mSv per 370 MBq dose or 10 mCi
  Estimated organ dose, Photon: 3.03 mSv per 370 MBq dose or 10 mCi
  Estimated organ dose, Total: 4.24 mSv per 370 MBq dose or 10 mCi
Target organ Skin
  Estimated organ dose, Alpha: 0 mSv per 370 MBq dose or 10 mCi
  Estimated organ dose, Beta: 1.70 mSv per 370 MBq dose or 10 mCi
  Estimated organ dose, ED Cont.: 0.03 mSv per 370 MBq dose or 10 mCi
  Estimated organ dose, EDE Cont.: 0.00 mSv per 370 MBq dose or 10 mCi
  Estimated organ dose, Photon: 1.76 mSv per 370 MBq dose or 10 mCi
  Estimated organ dose, Total: 3.46 mSv per 370 MBq dose or 10 mCi
Target organ Small Intestine
  Estimated organ dose, Alpha: 0 mSv per 370 MBq dose or 10 mCi
  Estimated organ dose, Beta: 4.15 mSv per 370 MBq dose or 10 mCi
  Estimated organ dose, ED Cont.: 0.04 mSv per 370 MBq dose or 10 mCi
  Estimated organ dose, EDE Cont.: 0.50 mSv per 370 MBq dose or 10 mCi
  Estimated organ dose, Photon: 4.21 mSv per 370 MBq dose or 10 mCi
  Estimated organ dose, Total: 8.36 mSv per 370 MBq dose or 10 mCi
Target organ Spleen
  Estimated organ dose, Alpha: 0 mSv per 370 MBq dose or 10 mCi
  Estimated organ dose, Beta: 1.70 mSv per 370 MBq dose or 10 mCi
  Estimated organ dose, ED Cont.: 0.03 mSv per 370 MBq dose or 10 mCi
  Estimated organ dose, EDE Cont.: 0.00 mSv per 370 MBq dose or 10 mCi
  Estimated organ dose, Photon: 3.52 mSv per 370 MBq dose or 10 mCi
  Estimated organ dose, Total: 5.22 mSv per 370 MBq dose or 10 mCi
Target organ Stomach Wall
  Estimated organ dose, Alpha: 0 mSv per 370 MBq dose or 10 mCi
  Estimated organ dose, Beta: 9.17 mSv per 370 MBq dose or 10 mCi
  Estimated organ dose, ED Cont.: 1.79 mSv per 370 MBq dose or 10 mCi
  Estimated organ dose, EDE Cont.: 0.90 mSv per 370 MBq dose or 10 mCi
  Estimated organ dose, Photon: 5.78 mSv per 370 MBq dose or 10 mCi
  Estimated organ dose, Total: 14.90 mSv per 370 MBq dose or 10 mCi
Target organ Testes
  Estimated organ dose, Alpha: 0 mSv per 370 MBq dose or 10 mCi
  Estimated organ dose, Beta: 1.70 mSv per 370 MBq dose or 10 mCi
  Estimated organ dose, ED Cont.: 0.00 mSv per 370 MBq dose or 10 mCi
  Estimated organ dose, EDE Cont.: 0.00 mSv per 370 MBq dose or 10 mCi
  Estimated organ dose, Photon: 2.67 mSv per 370 MBq dose or 10 mCi
  Estimated organ dose, Total: 4.37 mSv per 370 MBq dose or 10 mCi
Target organ Thymus
  Estimated organ dose, Alpha: 0 mSv per 370 MBq dose or 10 mCi
  Estimated organ dose, Beta: 1.70 mSv per 370 MBq dose or 10 mCi
  Estimated organ dose, ED Cont.: 0.02 mSv per 370 MBq dose or 10 mCi
  Estimated organ dose, EDE Cont.: 0.00 mSv per 370 MBq dose or 10 mCi
  Estimated organ dose, Photon: 2.63 mSv per 370 MBq dose or 10 mCi
  Estimated organ dose, Total: 4.33 mSv per 370 MBq dose or 10 mCi
Target organ Thyroid
  Estimated organ dose, Alpha: 0 mSv per 370 MBq dose or 10 mCi
  Estimated organ dose, Beta: 1.70 mSv per 370 MBq dose or 10 mCi
  Estimated organ dose, ED Cont.: 0.22 mSv per 370 MBq dose or 10 mCi
  Estimated organ dose, EDE Cont.: 0.13 mSv per 370 MBq dose or 10 mCi
  Estimated organ dose, Photon: 2.78 mSv per 370 MBq dose or 10 mCi
  Estimated organ dose, Total: 4.48 mSv per 370 MBq dose or 10 mCi
Target organ ULI Wall
  Estimated organ dose, Alpha: 0 mSv per 370 MBq dose or 10 mCi
  Estimated organ dose, Beta: 1.70 mSv per 370 MBq dose or 10 mCi
  Estimated organ dose, ED Cont.: 0.03 mSv per 370 MBq dose or 10 mCi
  Estimated organ dose, EDE Cont.: 0.00 mSv per 370 MBq dose or 10 mCi
  Estimated organ dose, Photon: 4.02 mSv per 370 MBq dose or 10 mCi
  Estimated organ dose, Total: 5.71 mSv per 370 MBq dose or 10 mCi
[1]
  Estimated organ dose, Alpha: 0 mSv per 370 MBq dose or 10 mCi
  Estimated organ dose, Beta: 1.70 mSv per 370 MBq dose or 10 mCi
  Estimated organ dose, ED Cont.: 0.27 mSv per 370 MBq dose or 10 mCi
  Estimated organ dose, EDE Cont.: 0.00 mSv per 370 MBq dose or 10 mCi
  Estimated organ dose, Photon: 3.63 mSv per 370 MBq dose or 10 mCi
  Estimated organ dose, Total: 5.33 mSv per 370 MBq dose or 10 mCi
Target organ Uterus
  Estimated organ dose, Alpha: 0 mSv per 370 MBq dose or 10 mCi
  Estimated organ dose, Beta: 1.70 mSv per 370 MBq dose or 10 mCi
  Estimated organ dose, ED Cont.: 0.03 mSv per 370 MBq dose or 10 mCi
  Estimated organ dose, EDE Cont.: 0.35 mSv per 370 MBq dose or 10 mCi
  Estimated organ dose, Photon: 4.06 mSv per 370 MBq dose or 10 mCi
  Estimated organ dose, Total: 5.76 mSv per 370 MBq dose or 10 mCi
